# Source: PMC8231992, “Protease Substrate-Independent Universal Assay for Monitoring Digestion of Native Unmodified Proteins” (International Journal of Molecular Sciences, 2021)
# Target: T1, papain (Carica papaya, UniProt P00784)
# T1 sequence (P00784 134-345): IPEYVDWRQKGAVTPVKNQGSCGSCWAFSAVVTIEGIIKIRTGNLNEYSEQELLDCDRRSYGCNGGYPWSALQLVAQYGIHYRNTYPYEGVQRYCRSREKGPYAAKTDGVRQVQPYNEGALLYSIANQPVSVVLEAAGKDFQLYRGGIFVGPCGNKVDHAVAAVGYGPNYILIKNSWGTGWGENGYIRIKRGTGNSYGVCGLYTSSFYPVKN
# Experiment: protein-probe time-resolved luminescence digestion assay, heat-denatured carbonic anhydrase substrate ([…] with native substrate)
# Type: biochemical
smiles,measurement,value
CC(C)C[C@H](NC(=O)[C@H]1O[C@@H]1C(=O)O)C(=O)NCCCCN=C(N)N [E-64],IC50,8.9 ± 0.9 nM
